Measured values from ChEMBL document CHEMBL4507258 (2021).

How the values were obtained:
[1] = tested on: Tyrosine-protein kinase ABL1 (Homo sapiens), P00519 [H396P]; settings: Compound concentration 1000.0 nM
[2] = tested on: Tyrosine-protein kinase ABL1 (Homo sapiens), P00519 [Q252H]; settings: Compound concentration 1000.0 nM
[3] = target: Activin receptor type-2B (Homo sapiens) (UniProt Q13705); settings: Compound concentration 1000.0 nM
[4] = target: Activin receptor type-1-like (Homo sapiens) (UniProt P37023); settings: Compound concentration 1000.0 nM
[5] = target: ALK tyrosine kinase receptor (Homo sapiens) (UniProt Q9UM73); settings: Compound concentration 1000.0 nM
[6] = target: Bone morphogenetic protein receptor type-1A (Homo sapiens) (UniProt P36894); settings: Compound concentration 1000.0 nM
[7] = target: Protein-tyrosine kinase 6 (Homo sapiens) (UniProt Q13882); settings: Compound concentration 1000.0 nM
[8] = target: Calcium/calmodulin-dependent protein kinase type II subunit alpha (Homo sapiens) (UniProt Q9UQM7); settings: Compound concentration 1000.0 nM
[9] = target: Cyclin-dependent kinase 13 (Homo sapiens) (UniProt Q14004); settings: Compound concentration 1000.0 nM
[10] = target: Cyclin-dependent kinase 4 (Homo sapiens) (UniProt P11802); settings: Compound concentration 1000.0 nM
[11] = target: Cyclin-dependent kinase 5 (Homo sapiens) (UniProt Q00535); settings: Compound concentration 1000.0 nM
[12] = target: Casein kinase I isoform delta (Homo sapiens) (UniProt P48730); settings: Compound concentration 1000.0 nM
[13] = target: Death-associated protein kinase 1 (Homo sapiens) (UniProt P53355); settings: Compound concentration 1000.0 nM
[14] = target: Serine/threonine-protein kinase DCLK2 (Homo sapiens) (UniProt Q8N568); settings: Compound concentration 1000.0 nM
[15] = target: Mitogen-activated protein kinase kinase kinase 12 (Homo sapiens) (UniProt Q12852); settings: Compound concentration 1000.0 nM
[16] = tested on: Epidermal growth factor receptor (Homo sapiens), P00533 [G719C]; settings: Compound concentration 1000.0 nM
[17] = target: Receptor tyrosine-protein kinase erbB-2 (Homo sapiens) (UniProt P04626); settings: Compound concentration 1000.0 nM
[18] = target: Fibroblast growth factor receptor 1 (Homo sapiens) (UniProt P11362); settings: Compound concentration 1000.0 nM
[19] = tested on: Fibroblast growth factor receptor 3 (Homo sapiens), P22607 [G697C]; settings: Compound concentration 1000.0 nM
[20] = tested on: Receptor-type tyrosine-protein kinase FLT3 (Homo sapiens), P36888 [D835V]; settings: Compound concentration 1000.0 nM
[21] = tested on: Receptor-type tyrosine-protein kinase FLT3 (Homo sapiens), P36888 [N841I]; settings: Compound concentration 1000.0 nM
[22] = target: Tyrosine-protein kinase FRK (Homo sapiens) (UniProt P42685); settings: Compound concentration 1000.0 nM
[23] = target: Homeodomain-interacting protein kinase 3 (Homo sapiens) (UniProt Q9H422); settings: Compound concentration 1000.0 nM
[24] = target: Homeodomain-interacting protein kinase 4 (Homo sapiens) (UniProt Q8NE63); settings: Compound concentration 1000.0 nM
[25] = target: Inhibitor of nuclear factor kappa-B kinase subunit beta (Homo sapiens) (UniProt O14920); settings: Compound concentration 1000.0 nM
[26] = target: Mitogen-activated protein kinase 9 (Homo sapiens) (UniProt P45984); settings: Compound concentration 1000.0 nM
[27] = tested on: Mast/stem cell growth factor receptor Kit (Homo sapiens), P10721 [V559D,T670I]; settings: Compound concentration 1000.0 nM
[28] = target: Serine/threonine-protein kinase MARK1 (Homo sapiens) (UniProt Q9P0L2); settings: Compound concentration 1000.0 nM
[29] = target: Dual specificity mitogen-activated protein kinase kinase 3 (Homo sapiens) (UniProt P46734); settings: Compound concentration 1000.0 nM
[30] = target: Dual specificity mitogen-activated protein kinase kinase 6 (Homo sapiens) (UniProt P52564); settings: Compound concentration 1000.0 nM
[31] = target: Serine/threonine-protein kinase 38 (Homo sapiens) (UniProt Q15208); settings: Compound concentration 1000.0 nM
[32] = target: Serine/threonine-protein kinase PAK 5 (Homo sapiens) (UniProt Q9P286); settings: Compound concentration 1000.0 nM
[33] = target: Platelet-derived growth factor receptor alpha (Homo sapiens) (UniProt P16234); settings: Compound concentration 1000.0 nM
[34] = target: cAMP-dependent protein kinase catalytic subunit alpha (Homo sapiens) (UniProt P17612); settings: Compound concentration 1000.0 nM
[35] = target: Serine/threonine-protein kinase N1 (Homo sapiens) (UniProt Q16512); settings: Compound concentration 1000.0 nM
[36] = target: Serine/threonine-protein kinase N2 (Homo sapiens) (UniProt Q16513); settings: Compound concentration 1000.0 nM
[37] = target: Serine/threonine-protein kinase D3 (Homo sapiens) (UniProt O94806); settings: Compound concentration 1000.0 nM
[38] = target: Uncharacterized serine/threonine-protein kinase SBK3 (Homo sapiens) (UniProt P0C264); settings: Compound concentration 1000.0 nM
[39] = target: Serine/threonine-protein kinase TAO1 (Homo sapiens) (UniProt Q7L7X3); settings: Compound concentration 1000.0 nM
[40] = target: High affinity nerve growth factor receptor (Homo sapiens) (UniProt P04629); settings: Compound concentration 1000.0 nM
[41] = target: Tyrosine-protein kinase TXK (Homo sapiens) (UniProt P42681); settings: Compound concentration 1000.0 nM
[42] = target: Tyrosine-protein kinase receptor TYRO3 (Homo sapiens) (UniProt Q06418); settings: Compound concentration 1000.0 nM
[43] = target: D(1B) dopamine receptor (Homo sapiens) (UniProt P21918); settings: Compound concentration 10.0 uM
[44] = target: Sigma intracellular receptor 2 (Homo sapiens) (UniProt Q5BJF2); settings: Compound concentration 10.0 uM
[45] = target: Sigma non-opioid intracellular receptor 1 (Homo sapiens, UniProt Q99720); settings: Compound concentration 10.0 uM

Chain of Bone morphogenetic protein receptor type-1A (Homo sapiens) (P36894 whole entry): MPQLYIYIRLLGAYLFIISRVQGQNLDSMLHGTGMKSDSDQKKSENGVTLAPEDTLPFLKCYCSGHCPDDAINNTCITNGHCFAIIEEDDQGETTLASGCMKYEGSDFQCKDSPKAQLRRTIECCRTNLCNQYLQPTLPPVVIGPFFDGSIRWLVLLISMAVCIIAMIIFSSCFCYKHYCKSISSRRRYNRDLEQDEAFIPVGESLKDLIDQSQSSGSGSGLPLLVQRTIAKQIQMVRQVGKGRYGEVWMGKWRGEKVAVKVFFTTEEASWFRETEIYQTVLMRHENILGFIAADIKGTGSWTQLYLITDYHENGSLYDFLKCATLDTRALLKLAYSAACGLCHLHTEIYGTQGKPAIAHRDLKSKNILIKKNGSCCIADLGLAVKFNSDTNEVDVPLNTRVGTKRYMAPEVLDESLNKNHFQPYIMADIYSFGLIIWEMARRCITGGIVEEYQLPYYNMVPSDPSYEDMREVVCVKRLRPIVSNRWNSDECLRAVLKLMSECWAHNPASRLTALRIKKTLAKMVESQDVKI
Chain of Casein kinase I isoform delta (Homo sapiens) (P48730 whole entry, looked up, canonical isoform): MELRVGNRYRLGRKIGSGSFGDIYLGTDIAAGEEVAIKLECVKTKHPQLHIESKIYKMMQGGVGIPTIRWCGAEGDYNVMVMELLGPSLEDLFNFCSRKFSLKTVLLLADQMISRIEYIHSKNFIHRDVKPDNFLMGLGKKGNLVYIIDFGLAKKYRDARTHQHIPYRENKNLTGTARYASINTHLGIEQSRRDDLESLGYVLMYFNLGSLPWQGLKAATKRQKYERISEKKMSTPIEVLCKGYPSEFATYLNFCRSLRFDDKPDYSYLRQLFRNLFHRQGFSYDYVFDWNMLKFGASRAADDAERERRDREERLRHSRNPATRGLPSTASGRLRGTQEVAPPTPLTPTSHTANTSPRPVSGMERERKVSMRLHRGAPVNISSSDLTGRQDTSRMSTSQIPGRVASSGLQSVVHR
Chain of Serine/threonine-protein kinase D3 (Homo sapiens) (O94806 whole entry): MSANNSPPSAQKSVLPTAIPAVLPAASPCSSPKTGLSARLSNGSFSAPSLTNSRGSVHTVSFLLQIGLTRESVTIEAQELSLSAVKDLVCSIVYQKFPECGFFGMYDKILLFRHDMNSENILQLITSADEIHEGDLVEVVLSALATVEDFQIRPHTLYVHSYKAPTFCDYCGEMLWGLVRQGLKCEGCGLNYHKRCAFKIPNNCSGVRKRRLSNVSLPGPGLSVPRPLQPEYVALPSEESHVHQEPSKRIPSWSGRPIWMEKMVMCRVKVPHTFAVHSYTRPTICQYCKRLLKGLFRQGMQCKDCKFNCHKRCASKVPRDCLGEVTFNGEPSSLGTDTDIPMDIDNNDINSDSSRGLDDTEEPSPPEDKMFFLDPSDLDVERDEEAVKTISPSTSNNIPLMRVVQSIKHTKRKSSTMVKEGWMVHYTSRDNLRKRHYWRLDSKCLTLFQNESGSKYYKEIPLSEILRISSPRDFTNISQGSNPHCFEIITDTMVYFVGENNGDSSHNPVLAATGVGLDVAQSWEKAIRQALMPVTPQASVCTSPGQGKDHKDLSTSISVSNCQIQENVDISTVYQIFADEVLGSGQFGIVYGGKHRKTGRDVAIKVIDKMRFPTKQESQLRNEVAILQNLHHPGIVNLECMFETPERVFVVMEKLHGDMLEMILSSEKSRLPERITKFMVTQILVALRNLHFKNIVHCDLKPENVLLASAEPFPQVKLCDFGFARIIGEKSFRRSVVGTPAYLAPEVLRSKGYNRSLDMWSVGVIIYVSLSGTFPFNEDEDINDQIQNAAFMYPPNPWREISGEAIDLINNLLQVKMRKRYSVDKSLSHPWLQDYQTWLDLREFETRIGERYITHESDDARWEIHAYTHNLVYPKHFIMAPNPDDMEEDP
Chain of Activin receptor type-2B (Homo sapiens) (Q13705 whole entry): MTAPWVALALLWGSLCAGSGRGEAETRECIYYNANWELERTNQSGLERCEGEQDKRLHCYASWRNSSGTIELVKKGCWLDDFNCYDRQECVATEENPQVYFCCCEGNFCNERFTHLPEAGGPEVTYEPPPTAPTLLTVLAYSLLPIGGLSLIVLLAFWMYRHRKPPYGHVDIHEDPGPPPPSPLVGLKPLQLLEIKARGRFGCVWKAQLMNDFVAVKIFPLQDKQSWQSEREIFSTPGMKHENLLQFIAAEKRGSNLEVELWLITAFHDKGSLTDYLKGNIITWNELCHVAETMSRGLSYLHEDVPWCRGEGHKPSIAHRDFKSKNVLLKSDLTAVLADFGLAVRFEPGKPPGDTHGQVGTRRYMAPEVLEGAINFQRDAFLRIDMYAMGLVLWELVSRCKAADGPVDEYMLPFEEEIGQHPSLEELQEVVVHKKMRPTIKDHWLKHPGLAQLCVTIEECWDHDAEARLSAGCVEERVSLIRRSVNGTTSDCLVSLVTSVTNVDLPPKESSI
Chain of Serine/threonine-protein kinase N1 (Homo sapiens) (Q16512 2-942 limits assumed): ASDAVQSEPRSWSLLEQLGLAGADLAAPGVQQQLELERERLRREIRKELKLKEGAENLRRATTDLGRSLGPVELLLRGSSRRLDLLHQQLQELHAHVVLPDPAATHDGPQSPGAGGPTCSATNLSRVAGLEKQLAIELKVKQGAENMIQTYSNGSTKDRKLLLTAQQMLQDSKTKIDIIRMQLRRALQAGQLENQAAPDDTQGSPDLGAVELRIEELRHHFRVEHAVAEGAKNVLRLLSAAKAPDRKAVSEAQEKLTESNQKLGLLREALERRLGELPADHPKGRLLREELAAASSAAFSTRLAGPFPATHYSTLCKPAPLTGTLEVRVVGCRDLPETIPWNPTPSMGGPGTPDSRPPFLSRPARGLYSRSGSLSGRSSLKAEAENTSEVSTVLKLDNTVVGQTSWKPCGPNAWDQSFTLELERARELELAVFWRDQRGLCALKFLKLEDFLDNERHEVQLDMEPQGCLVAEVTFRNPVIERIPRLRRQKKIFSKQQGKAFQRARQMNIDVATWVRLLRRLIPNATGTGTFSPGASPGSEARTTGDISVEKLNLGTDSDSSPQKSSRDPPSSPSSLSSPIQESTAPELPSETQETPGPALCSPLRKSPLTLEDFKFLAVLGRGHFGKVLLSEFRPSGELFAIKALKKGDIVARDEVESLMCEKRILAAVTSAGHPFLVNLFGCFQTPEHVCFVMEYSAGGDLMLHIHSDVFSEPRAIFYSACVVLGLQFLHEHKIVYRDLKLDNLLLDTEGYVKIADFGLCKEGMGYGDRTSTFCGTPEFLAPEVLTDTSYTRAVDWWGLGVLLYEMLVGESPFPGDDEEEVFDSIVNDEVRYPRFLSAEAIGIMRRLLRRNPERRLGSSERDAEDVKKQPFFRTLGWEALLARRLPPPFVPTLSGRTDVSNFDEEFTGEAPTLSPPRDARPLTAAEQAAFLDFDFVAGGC
Chain of High affinity nerve growth factor receptor (Homo sapiens) (P04629 33-796 limits assumed): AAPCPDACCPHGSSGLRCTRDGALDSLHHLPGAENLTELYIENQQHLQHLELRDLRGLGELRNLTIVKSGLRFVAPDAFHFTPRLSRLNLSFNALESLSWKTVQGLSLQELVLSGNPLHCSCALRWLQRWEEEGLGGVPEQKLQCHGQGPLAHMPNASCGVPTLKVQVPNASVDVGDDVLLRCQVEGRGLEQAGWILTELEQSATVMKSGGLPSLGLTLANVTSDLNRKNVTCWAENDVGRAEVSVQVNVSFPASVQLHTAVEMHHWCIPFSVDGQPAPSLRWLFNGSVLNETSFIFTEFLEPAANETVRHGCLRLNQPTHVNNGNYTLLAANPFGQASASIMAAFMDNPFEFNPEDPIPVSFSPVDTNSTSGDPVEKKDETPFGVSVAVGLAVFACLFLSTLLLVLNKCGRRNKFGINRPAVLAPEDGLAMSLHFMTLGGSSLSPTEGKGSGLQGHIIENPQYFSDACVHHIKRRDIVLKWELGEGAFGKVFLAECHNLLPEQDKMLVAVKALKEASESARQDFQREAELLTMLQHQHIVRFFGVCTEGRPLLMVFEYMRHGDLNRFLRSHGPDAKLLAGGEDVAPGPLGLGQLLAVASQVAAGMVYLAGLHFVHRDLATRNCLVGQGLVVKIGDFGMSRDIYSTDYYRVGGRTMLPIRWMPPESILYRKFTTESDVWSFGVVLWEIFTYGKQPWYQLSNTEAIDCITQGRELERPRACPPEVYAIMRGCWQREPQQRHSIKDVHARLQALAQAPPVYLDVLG
Chain of Mitogen-activated protein kinase 9 (Homo sapiens) (P45984 whole entry, looked up): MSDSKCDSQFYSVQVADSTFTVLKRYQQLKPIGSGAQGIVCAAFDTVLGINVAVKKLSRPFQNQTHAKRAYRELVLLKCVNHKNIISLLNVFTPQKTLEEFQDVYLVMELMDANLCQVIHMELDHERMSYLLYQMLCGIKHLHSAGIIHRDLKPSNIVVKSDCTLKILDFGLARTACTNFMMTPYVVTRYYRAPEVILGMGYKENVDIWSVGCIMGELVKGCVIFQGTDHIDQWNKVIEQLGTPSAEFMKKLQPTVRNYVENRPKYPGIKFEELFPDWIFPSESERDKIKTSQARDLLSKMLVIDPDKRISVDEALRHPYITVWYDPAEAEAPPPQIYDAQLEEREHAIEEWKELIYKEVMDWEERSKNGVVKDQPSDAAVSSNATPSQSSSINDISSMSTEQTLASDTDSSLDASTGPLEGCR
Chain of Sigma intracellular receptor 2 (Homo sapiens) (Q5BJF2 whole entry): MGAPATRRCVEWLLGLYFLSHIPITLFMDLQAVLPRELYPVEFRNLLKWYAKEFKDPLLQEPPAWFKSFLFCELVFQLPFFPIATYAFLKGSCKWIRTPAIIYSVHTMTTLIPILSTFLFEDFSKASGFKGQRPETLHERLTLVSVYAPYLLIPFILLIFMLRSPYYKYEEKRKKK
Chain of Dual specificity mitogen-activated protein kinase kinase 3 (Homo sapiens) (P46734 whole entry): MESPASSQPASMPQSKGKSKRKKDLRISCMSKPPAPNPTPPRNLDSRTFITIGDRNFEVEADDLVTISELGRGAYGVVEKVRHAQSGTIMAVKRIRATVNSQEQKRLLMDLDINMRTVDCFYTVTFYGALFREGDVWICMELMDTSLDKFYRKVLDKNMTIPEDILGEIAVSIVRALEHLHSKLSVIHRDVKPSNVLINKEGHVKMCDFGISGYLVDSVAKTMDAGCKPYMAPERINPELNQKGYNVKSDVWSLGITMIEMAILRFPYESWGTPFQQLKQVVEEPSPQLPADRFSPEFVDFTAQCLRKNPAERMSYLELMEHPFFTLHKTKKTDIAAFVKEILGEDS

CCCCN(CCCC)C(=O)CN1C[C@@H](c2cc(OC)c3c(c2)OCO3)[C@H](C(=O)O)[C@H]1CC(C)(C)CCC [A-545]
active: inhibition [45] 93.6%
inactive: residual activity [1] 89.4% | residual activity [2] 94.6% | residual activity [3] 85.1% | residual activity [4] 99.4% | residual activity [5] 100% | residual activity [6] 100% | residual activity [7] 100% | residual activity [8] 100% | residual activity [9] 100% | residual activity [10] 100% | residual activity [11] 97.7% | residual activity [12] 98.9% | residual activity [13] 82.8% | residual activity [14] 87.4% | residual activity [15] 89.9% | residual activity [16] 100% | residual activity [17] 92.1% | residual activity [18] 100% | residual activity [19] 94% | residual activity [20] 78.8% | residual activity [21] 96.1% | residual activity [22] 100% | residual activity [23] 100% | residual activity [24] 100% | residual activity [25] 100% | residual activity [26] 100% | residual activity [27] 79% | residual activity [28] 88.7% | residual activity [29] 89.5% | residual activity [30] 90.8% | residual activity [31] 95.2% | residual activity [32] 96.6% | residual activity [33] 100% | residual activity [34] 81.9% | residual activity [35] 85% | residual activity [36] 100% | residual activity [37] 100% | residual activity [38] 100% | residual activity [39] 97.4% | residual activity [40] 86.7% | residual activity [41] 100% | residual activity [42] 97.1% | inhibition [43] 30.5% | inhibition [44] 41.3%

CCCCN(CCCC)C(=O)CN1C[C@H](c2cc(OC)c3c(c2)OCO3)[C@@H](C(=O)O)[C@@H]1CC(C)(C)CCC [ABT-546]
active: residual activity [10] 42.7%
inactive: residual activity [1] 96.3% | residual activity [2] 97.7% | residual activity [3] 100% | residual activity [4] 100% | residual activity [5] 58.3% | residual activity [6] 86.9% | residual activity [7] 100% | residual activity [8] 100% | residual activity [9] 52.5% | residual activity [11] 100% | residual activity [12] 100% | residual activity [13] 100% | residual activity [14] 100% | residual activity [15] 72.1% | residual activity [16] 95.4% | residual activity [17] 95.6% | residual activity [18] 89.4% | residual activity [19] 80.2% | residual activity [20] 57.4% | residual activity [21] 100% | residual activity [22] 100% | residual activity [23] 100% | residual activity [24] 100% | residual activity [25] 81.5% | residual activity [26] 100% | residual activity [27] 100% | residual activity [28] 96.5% | residual activity [29] 57.5% | residual activity [30] 100% | residual activity [31] 80.7% | residual activity [32] 93.8% | residual activity [33] 56.1% | residual activity [34] 100% | residual activity [35] 100% | residual activity [36] 100% | residual activity [37] 90.2% | residual activity [38] 100% | residual activity [39] 55.6% | residual activity [40] 61.2% | residual activity [41] 94.3% | residual activity [42] 100% | inhibition [43] 17% | inhibition [44] 48.5% | inhibition [45] 29.6%
